Laboratory results as given in patent US12629374B2, “Antimalarial agents” (Merck Sharp & Dohme LLC, priority 2020, dated 2026).

system: ring stage parasites; experiment: Parasite growth potency assay, 72 hours, LDH readout; format: cell-based; settings: 72 h, parasite growth measured by LDH assay after 72 hours at 37° C.; 0.7% rings, 2% haematocrit; read-out: EC50
Outline: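 Parasite growth was quantified by LDH assay after a −80 °C freeze-thaw. Before that, compound was incubated for 72 h at 37 °C under humidified gas with ring-stage cultures adjusted to 0.7% parasitemia and 2% haematocrit in serum- and albumax-supplemented RPMI-Hepes.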

SMILES	EC50 [nM]
CCC1(CC)CC(=O)N(Cc2cc(C(=O)N[C@@H]3c4ccccc4OC(C)(C)[C@H]3O)ccn2)C(=N)N1 (stereo in doubt) [Example 133, [4,4-diethyl-1-[[4-[(3-hydroxy-2,2-dimethyl-chroman-4-yl)carbamoyl]pyridin-1-ium-2-yl]methyl]-6-oxo-hexahydropyrimidin-2-ylidene]ammonium; 2,2,2-trifluoroacetate]	3.3
CCC1(CC)CC(=O)N([C@H](CCN2CCOCC2)c2cccc(C(=O)NC3CC(C)(C)Oc4ccc(F)cc43)c2)C(=N)N1 (stereo in doubt) [Example 137, [4,4-diethyl-1-[1-[3-[(6-fluoro-2,2-dimethyl-chroman-4-yl)carbamoyl]phenyl]-3-morpholin-4-ium-4-yl-propyl]-6-oxo-hexahydropyrimidin-2-ylidene]ammonium; 2,2,2-trifluoroacetate]	0.8
CCC1(CC)CC(=O)N([C@H](CCOC)c2cccc(C(=O)NC3c4ccccc4CC3(C)O)c2)C(=N)N1 (stereo in doubt) [Example 142A, 3-[1-(4,4-diethyl-2-imino-6-oxo-hexahydropyrimidin-1-yl)-3-methoxy-propyl]-N-(2-hydroxy-2-methyl-indan-1-yl)benzamide]	2.1
CCC1(CC)CC(=O)N([C@H](CCOC)c2cccc(C(=O)N[C@@H]3c4ccccc4OCC3(C)O)c2)C(=N)N1 (stereo in doubt) [Example 143A, 3-[1-(4,4-diethyl-2-imino-6-oxo-hexahydropyrimidin-1-yl)-3-methoxy-propyl]-N-(3-hydroxy-3-methyl-chroman-4-yl)benzamide]	2.2
CCC1(CC)CC(=O)N(Cc2cccc(C(=O)N[C@@H]3c4cc(F)ccc4OC(C)(C)[C@H]3O)c2)C(=N)N1 (stereo in doubt) [Example 147, [4,4-diethyl-1-[[3-[(6-fluoro-3-hydroxy-2,2-dimethyl-chroman-4-yl)carbamoyl]phenyl]methyl]-6-oxo-hexahydropyrimidin-2-ylidene]ammonium; 2,2,2-trifluoroacetate]	1
CCC1(CC)CC(=O)N(Cc2cc(F)cc(C(=O)N[C@@H]3c4cc(F)ccc4OC(C)(C)[C@H]3O)c2)C(=N)N1 (stereo in doubt) [Example 148, [4,4-diethyl-1-[[3-fluoro-5-[(6-fluoro-3-hydroxy-2,2-dimethyl-chroman-4-yl)carbamoyl]phenyl]methyl]-6-oxo-hexahydropyrimidin-2-ylidene]ammonium; 2,2,2-trifluoroacetate]	1
CCC1(CC)CC(=O)N(Cc2cccc(C(=O)N[C@@H]3c4ccccc4OC(C)(C)C3(C)O)c2)C(=N)N1 (stereo in doubt) [Example 184, 3-[(4,4-diethyl-2-imino-6-oxo-hexahydropyrimidin-1-yl)methyl]-N-(3-hydroxy-2,2,3-trimethyl-chroman-4-yl)benzamide]	1.5
CC1(C)CC(=O)N(Cc2cccc(C(=O)N[C@@H]3c4ccccc4OC(C)(C)C3(C)O)c2)C(=N)N1 (stereo in doubt) [Example 185, N-(3-hydroxy-2,2,3-trimethyl-chroman-4-yl)-3-[(2-imino-4,4-dimethyl-6-oxo-hexahydropyrimidin-1-yl)methyl]benzamide]	62.5
CCC1(CC)CC(=O)N(Cc2cccc(C(=O)N[C@@H]3c4ccccc4OC3(C)C)c2)C(=N)N1 (stereo in doubt) [Example 186, [1-[[3-[(2,2-dimethyl-3H-benzofuran-3-yl)carbamoyl]phenyl]methyl]-4,4-diethyl-6-oxo-hexahydropyrimidin-2-ylidene]ammonium; 2,2,2-trifluoroacetate]	10.9
CCC1(CC)CC(=O)N(Cc2cccc(C(=O)N[C@@H]3c4ccccc4C(F)(F)C3O)c2)C(=N)N1 (stereo in doubt) [Example 190, [1-[[3-[(3,3-difluoro-2-hydroxy-indan-1-yl)carbamoyl]phenyl]methyl]-4,4-diethyl-6-oxo-hexahydropyrimidin-2-ylidene]ammonium; 2,2,2-trifluoroacetate]	6.6
CC1(C)CC(=O)N(Cc2cc(F)cc(C(=O)N[C@@H]3c4cc(F)ccc4OC(C)(C)[C@H]3O)c2)C(=N)N1 (stereo in doubt) [Example 197, [1-[[3-fluoro-5-[(6-fluoro-3-hydroxy-2,2-dimethyl-chroman-4-yl)carbamoyl]phenyl]methyl]-4,4-dimethyl-6-oxo-hexahydropyrimidin-2-ylidene]ammonium; 2,2,2-trifluoroacetate]	3.4
CCC1(CC)CC(=O)N(Cc2cccc(C(=O)N[C@@H]3c4cc(F)ccc4C[C@H]3O)c2)C(=N)N1 (stereo in doubt) [Example 199, [4,4-diethyl-1-[[3-[(6-fluoro-2-hydroxy-indan-1-yl)carbamoyl]phenyl]methyl]-6-oxo-hexahydropyrimidin-2-ylidene]ammonium; 2,2,2-trifluoroacetate]	6.2
C#CCC[C@H](c1cccc(C(=O)NC2CC3(CCC3)Oc3ccccc32)c1)N1C(=N)NC(CC)(CC)CC1=O (stereo in doubt) [Example 211A, [4,4-diethyl-6-oxo-1-[(1R)-1-[3-[[(4S)-spiro[chromane-2,1′-cyclobutane]-4-yl]carbamoyl]phenyl]pent-4-ynyl]hexahydropyrimidin-2-ylidene]ammonium; 2,2,2-trifluoroacetate]	25

same assay, conditions: parasite growth measured by LDH assay after 72 hours at 37° C.; 0.7% rings, 2% haematocrit; read-out: EC50

SMILES	EC50 [nM]
CCC1(CC)CC(=O)N([C@H](CCOC)c2cccc(C(=O)N[C@@H]3c4ccccc4OCC3(C)O)c2)C(=N)N1 (stereo in doubt) [Example 143B, 3-[1-(4,4-diethyl-2-imino-6-oxo-hexahydropyrimidin-1-yl)-3-methoxy-propyl]-N-(3-hydroxy-3-methyl-chroman-4-yl)benzamide]	1.8
CCC1(CC)CC(=O)N([C@H](CCOC)c2cc(F)cc(C(=O)N[C@@H]3c4ccccc4CC3(C)O)c2)C(=N)N1 (stereo in doubt) [Example 144B, 3-[1-(4,4-diethyl-2-imino-6-oxo-hexahydropyrimidin-1-yl)-3-methoxy-propyl]-5-fluoro-N-(2-hydroxy-2-methyl-indan-1-yl)benzamide]	1.9
CCC1(CC)CC(=O)N([C@H](CCOC)c2cc(F)cc(C(=O)N[C@@H]3c4ccccc4CC3(C)O)c2)C(=N)N1 (stereo in doubt) [Example 144D, 3-[1-(4,4-diethyl-2-imino-6-oxo-hexahydropyrimidin-1-yl)-3-methoxy-propyl]-5-fluoro-N-(2-hydroxy-2-methyl-indan-1-yl)benzamide]	0.9

same assay, conditions: parasite growth measured by LDH assay after 72 hours at 37° C.; 0.7% rings, 2% haematocrit; trifluoroacetate; read-out: EC50

SMILES	EC50 [nM]
CCC1(CC)CC(=O)N(Cc2cccc(C(=O)N[C@@H]3c4ccccc4OC3(C)CO)c2)C(=N)N1 (stereo in doubt) [Example 187A, [4,4-diethyl-1-[[3-[[2-(hydroxymethyl)-2-methyl-3H-benzofuran-3-yl]carbamoyl]phenyl]methyl]-6-oxo-hexahydropyrimidin-2-ylidene]ammonium; 2,2,2-trifluoroacetate]	54.2
CCC1(CC)CC(=O)N(Cc2cccc(C(=O)N[C@@H]3c4ccccc4OC3(C)CO)c2)C(=N)N1 (stereo in doubt) [Example 187B, [4,4-diethyl-1-[[3-[[2-(hydroxymethyl)-2-methyl-3H-benzofuran-3-yl]carbamoyl]phenyl]methyl]-6-oxo-hexahydropyrimidin-2-ylidene]ammonium; 2,2,2-trifluoroacetate]	19.3
